Results: patent US7569578B2, “Heterocyclic anti-migraine agents” (Bristol-Meyers Squibb Company, priority 2003, dated 2009)

Each molecule was assayed against T1, Human CGRP1 Receptor (Homo sapiens, UniProt O60894+Q16602) (assay: CGRP Binding Assay ([125I]-CGRP radioligand displacement, SK-N-MC membrane homogenate)). Conditions: [125I]-CGRP displacement, SK-N-MC homogenate, room temperature 2 h; read-out: Human CGRP1 Receptor IC50.
T1 construct: endogenous in cells; host or cells: SK-N-MC cells (membrane homogenate)
T1 sequence (Q16602 23-461): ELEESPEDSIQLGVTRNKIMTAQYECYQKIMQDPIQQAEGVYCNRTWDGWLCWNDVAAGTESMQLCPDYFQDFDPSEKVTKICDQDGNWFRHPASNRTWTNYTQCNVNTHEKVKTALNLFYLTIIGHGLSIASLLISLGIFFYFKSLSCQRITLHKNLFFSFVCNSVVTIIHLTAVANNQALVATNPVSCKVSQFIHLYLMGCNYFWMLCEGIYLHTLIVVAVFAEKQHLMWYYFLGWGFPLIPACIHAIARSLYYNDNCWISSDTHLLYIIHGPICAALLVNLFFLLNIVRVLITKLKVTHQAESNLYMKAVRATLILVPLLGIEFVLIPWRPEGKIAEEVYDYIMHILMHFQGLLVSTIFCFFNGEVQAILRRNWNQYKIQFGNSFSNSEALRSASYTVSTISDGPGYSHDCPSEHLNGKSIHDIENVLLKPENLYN
T1 sequence (O60894 27-148): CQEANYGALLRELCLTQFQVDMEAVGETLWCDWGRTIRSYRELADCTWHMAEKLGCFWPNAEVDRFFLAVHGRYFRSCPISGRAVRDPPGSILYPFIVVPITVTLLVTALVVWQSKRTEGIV
Description: Tissue Culture. SK-N-MC cells were grown at 37° C. in 5% CO2 as a monolayer in medium consisting of MEM with Earle's salts and L-glutamine (Gibco) supplemented with 10% fetal bovine serum (Gibco).
Cell Pellets. […] The cells were transferred from plates to polypropylene tubes (16×100 mm) and homogenized using a polytron. Homogenates were centrifuged at 32,000×g for 30 min. The pellets were resuspended in cold hypotonic lysis buffer with 0.1% mammalian protease inhibitor cocktail (Sigma) and assayed for protein concentration. The SK-N-MC homogenate was then aliquoted and stored at −80° C. until needed.
Radioligand Binding Assay. The compounds of invention were solubilized and carried through serial dilutions using 100% DMSO. Aliquots from the compound serial dilutions were further diluted 25 fold into assay buffer (50 mM Tris-Cl pH 7.5, 5 mM MgCl2, 0.005% Triton X-100) and transferred (volume 50 μl) into 96 well assay plates. […] SK-N-MC pellets were thawed, diluted in assay buffer with fresh 0.1% mammalian protease inhibitor cocktail (Sigma), and homogenized again. SK-N-MC homogenate (5 μg/well) was added in a volume of 100 μl. The assay plates were then incubated at room temperature for 2 h. Assays were stopped by addition of excess cold wash buffer (20 mM Tris-Cl pH 7.5, 0.1% BSA) immediately followed by filtration over glass fiber filters (Whatman GF/B) previously soaked in 0.5% PEI. Non-specific binding was defined with 1 μM beta-CGRP. Protein bound radioactivity was determined using a gamma or scintillation counter.

| SMILES | IC50 [nM] |
| --- | --- |
| Cc1cc(CC(CC(=O)N2CCC(N3Cc4ccccc4NC3=O)CC2)c2nc(Cc3ccncc3)no2)cc2cn[nH]c12 (racemic) [Example 6, (±)-3-{1-[4-(7-Methyl-1H-indazol-5-yl)-3-(3-pyridin-4-ylmethyl-[1,2,4]oxadiazol-5-yl)-butyryl]-piperidin-4-yl}-3,4-dihydro-1H-quinazolin-2-one] | 10 to 100 |
| Cc1cc(CC(CC(=O)N2CCC(N3Cc4ccccc4NC3=O)CC2)c2nc(CN(C)C)no2)cc2cn[nH]c12 (racemic) [Example 7, (±)-3-{1-[3-(3-Dimethylaminomethyl-[1,2,4]oxadiazol-5-yl)-4-(7-methyl-1H-indazol-5-yl)-butyryl]-piperidin-4-yl}-3,4-dihydro-1H-quinazolin-2-one] | 10 to 100 |
| Cc1cc(CC(CC(=O)N2CCC3(CC2)OC(=O)Nc2ccccc23)c2nc(Cc3ccccc3)no2)cc2cn[nH]c12 (racemic) [Example 8, (±)-3-{1-[3-(3-Benzyl-[1,2,4]oxadiazol-5-yl)-4-(7-methyl-1H-indazol-5-yl)-butyryl]-4,4′-piperidinyl}-1′,2′-dihydro-2′-oxospiro-[4H-3′,1-benzoxazine] | 10 to 100 |
| Cc1noc(C(CC(=O)N2CCC3(CC2)OC(=O)Nc2ccccc23)Cc2cc(C)c3[nH]ncc3c2)n1 (racemic) [Example 9, (±)-3-{1-[3-(3-Methyl-[1,2,4]oxadiazol-5-yl)-4-(7-methyl-1H-indazol-5-yl)-butyryl]-4,4′-piperidinyl}-1′,2′-dihydro-2′-oxospiro-[4H-3′,1-benzoxazine] | 100 to 1000 |
| Cc1noc(C(Cc2cc(C)c3[nH]ncc3c2)NC(=O)N2CCC(N3Cc4ccccc4NC3=O)CC2)n1 (racemic) [Example 11, (±)-4-(2-Oxo-1,4-dihydro-2H-quinazolin-3-yl)-piperidine-1-carboxylic acid [2-(7-methyl-1H-indazol-5-yl)-1-(3-methyl-[1,2,4]oxadiazol-5-yl)-ethyl]-amide] | 10 to 100 |
| Cc1cc(CC(NC(=O)N2CCC(N3Cc4ccccc4NC3=O)CC2)c2nc(Cc3ccncc3)no2)cc2cn[nH]c12 (racemic) [Example 12, (±)-4-(2-Oxo-1,4-dihydro-2H-quinazolin-3-yl)-piperidine-1-carboxylic acid [2-(7-methyl-1H-indazol-5-yl)-1-(3-pyridin-4-ylmethyl-[1,2,4]oxadiazol-5-yl)-ethyl]-amide] | 10 to 100 |
| Cc1cc(CC(NC(=O)N2CCC(N3Cc4ccccc4NC3=O)CC2)c2nc(CN(C)C)no2)cc2cn[nH]c12 (racemic) [Example 13, (±)-4-(2-Oxo-1,4-dihydro-2H-quinazolin-3-yl)-piperidine-1-carboxylic acid [1-(3-dimethylaminomethyl-[1,2,4]oxadiazol-5-yl)-2-(7-methyl-1H-indazol-5-yl)-ethyl]-amide] | 100 to 1000 |
| CCc1cc(CC(NC(=O)N2CCC(N3Cc4ccccc4NC3=O)CC2)c2nnn[nH]2)cc2c(C)n[nH]c12 (racemic) [Example 14, (±)-4-(2-Oxo-1,4-dihydro-2H-quinazolin-3-yl)-piperidine-1-carboxylic acid [2-(7-ethyl-3-methyl-1H-indazol-5-yl)-1-(1H-tetrazol-5-yl)-ethyl]-amide] | 100 to 1000 |
| CCc1cc(CC(NC(=O)N2CCC(N3Cc4ccccc4NC3=O)CC2)c2nnn(CCc3ccccc3)n2)cc2c(C)n[nH]c12 (racemic) [Example 16, (±)-4-(2-Oxo-1,4-dihydro-2H-quinazolin-3-yl)-piperidine-1-carboxylic acid [2-(7-ethyl-3-methyl-1H-indazol-5-yl)-1-(2-phenethyl-2H-tetrazol-5-yl)-ethyl]-amide] | 10 to 100 |
| CCc1cc(CC(NC(=O)N2CCC(N3Cc4ccccc4NC3=O)CC2)c2nnnn2C)cc2c(C)n[nH]c12 (racemic) [Example 17, (±)-4-(2-Oxo-1,4-dihydro-2H-quinazolin-3-yl)-piperidine-1-carboxylic acid [2-(7-ethyl-3-methyl-1H-indazol-5-yl)-1-(1-methyl-1H-tetrazol-5-yl)-ethyl]-amide] | 10 to 100 |
| CCc1cc(CC(NC(=O)N2CCC(N3Cc4ccccc4NC3=O)CC2)c2nnn(CC(=O)c3ccccc3)n2)cc2c(C)n[nH]c12 (racemic) [Example 20, (±)-4-(2-Oxo-1,4-dihydro-2H-quinazolin-3-yl)-piperidine-1-carboxylic acid [2-(7-ethyl-3-methyl-1H-indazol-5-yl)-1-(2-oxo-2Phenethyl-2H-tetrazol-5-yl)-ethyl]-amide] | 10 to 100 |
| CCc1cc(CC(NC(=O)N2CCC(N3Cc4ccccc4NC3=O)CC2)c2nnnn2CC(=O)c2ccccc2)cc2c(C)n[nH]c12 (racemic) [Example 21, (±)-4-(2-Oxo-1,4-dihydro-2H-quinazolin-3-yl)-piperidine-1-carboxylicacid [2-(7-ethyl-3-methyl-1H-indazol-5-yl)-1-[1-(2-oxo-2-phenyl-ethyl)-1H-tetrazol-5-yl)-ethyl]-amide] | 10 to 100 |
| CCc1ccnc(C(CC(=O)N2CCC(N3Cc4ccccc4NC3=O)CC2)Cc2cc(C)c3[nH]ncc3c2)c1 (racemic) [Example 22, (±)-3-(1-(3-(4-Ethylpyridin-2-yl)-4-(7-methyl-1H-indazol-5-yl)butanoyl)piperidin-4-yl)-3,4-dihydroquinazolin-2(1H)-one] | 10 to 100 |
| Cc1cc(CC(CC(=O)N2CCC(N3Cc4cccc(F)c4NC3=O)CC2)c2ccccn2)cc2cn[nH]c12 (racemic) [Example 23, (±)-8-Fluoro-3-(1-(4-(7-methyl-1H-indazol-5-yl)-3-(pyridin-2-yl)butanoyl)piperidin-4-yl)-3,4-dihydroquinazolin-2(1H)-one] | 10 to 100 |
| Cc1cc(CC(CC(=O)N2CCC(c3cc4ccccc4[nH]c3=O)CC2)c2ccccn2)cc2cn[nH]c12 (racemic) [Example 24, (±)-3-(1-(4-(7-Methyl-1H-indazol-5-yl)-3-(pyridin-2-yl)butanoyl)piperidin-4-yl)quinolin-2(1H)-one] | 10 to 100 |
| Cc1ccc(C(CC(=O)N2CCC(N3Cc4ccccc4NC3=O)CC2)Cc2cc(C)c3[nH]ncc3c2)nc1 (racemic) [Example 26, (±)-3-(1-(4-(7-Methyl-1H-indazol-5-yl)-3-(5-methylpyridin-2-yl)butanoyl)piperidin-4-yl)-3,4-dihydroquinazolin-2(1H)-one] | 10 to 100 |

Other lines, results leading:

| IC50 [nM] | SMILES |
| --- | --- |
| < 10 | Cc1cc(CC(CC(=O)N2CCC(N3Cc4ccccc4NC3=O)CC2)c2ccccn2)cc2cn[nH]c12 (racemic) [Example 1, (±)-3-{1-[4-(7-Methyl-1H-indazol-5-yl)-3-pyridin-2-yl-butyryl]-piperidin-4-yl}-3,4-dihydro-1H-quinazolin-2-one] |
| < 10 | Cc1cc(CC(CC(=O)N2CCC(N3Cc4ccccc4NC3=O)CC2)c2nc(Cc3ccccc3)no2)cc2cn[nH]c12 (racemic) [Example 2, (±)-3-{1-[3-(3-Benzyl-[1,2,4]oxadiazol-5-yl)-4-(7-methyl-1H-indazol-5-yl)-butyryl]-piperidin-4-yl}-3,4-dihydro-1H-quinazolin-2-one] |
| 10 to 100 | Cc1cc(CC(CC(=O)N2CCC(N3Cc4ccccc4NC3=O)CC2)c2nc(CN3CCCCC3)no2)cc2cn[nH]c12 (racemic) [Example 3, (±)-3-{1-[4-(7-Methyl-1H-indazol-5-yl)-3-(3-piperidin-1-ylmethyl [1,2,4]oxadiazol-5-yl)-butyryl]-piperidin-4-yl}-3,4-dihydro-1H-quinazolin-2-one] |
| 10 to 100 | Cc1cc(CC(CC(=O)N2CCC(N3Cc4ccccc4NC3=O)CC2)c2nc(-c3ccccc3)no2)cc2cn[nH]c12 (racemic) [Example 4, (±)-3-{1-[4-(7-Methyl-1H-indazol-5-yl)-3-(3-phenyl-[1,2,4]oxadiazol-5-yl)-butyryl]-piperidin-4-yl}-3,4-dihydro-1H-quinazolin-2-one] |
| 10 to 100 | Cc1noc(C(CC(=O)N2CCC(N3Cc4ccccc4NC3=O)CC2)Cc2cc(C)c3[nH]ncc3c2)n1 (racemic) [Example 5, (±)-3-{1-[4-(7-Methyl-1H-indazol-5-yl)-3-(3-methyl-[1,2,4]oxadiazol-5-yl)-butyryl]-piperidin-4-yl}-3,4-dihydro-1H-quinazolin-2-one] |
| < 10 | Cc1cc(CC(NC(=O)N2CCC(N3Cc4ccccc4NC3=O)CC2)c2nc(Cc3ccccc3)no2)cc2cn[nH]c12 (racemic) [Example 10, (±)-4-(2-Oxo-1,4-dihydro-2H-quinazolin-3-yl)-piperidine-1-carboxylic acid [1-(3-benzyl-[1,2,4]oxadiazol-5-yl)-2-(7-methyl-1H-indazol-5-yl)-ethyl]-amide] |
| < 10 | Cc1cccnc1C(CC(=O)N1CCC(N2Cc3ccccc3NC2=O)CC1)Cc1cc(C)c2[nH]ncc2c1 (racemic) [Example 25, (±)-3-(1-(4-(7-Methyl-1H-indazol-5-yl)-3-(3-methylpyridin-2-yl)butanoyl)piperidin-4-yl)-3,4-dihydroquinazolin-2(1H)-one] |
| < 10 | Cc1cc(CC(CC(=O)N2CCC(N3Cc4ccccc4NC3=O)CC2)c2ccc(CO)cn2)cc2cn[nH]c12 (racemic) [Example 27, (±)-3-(1-(3-(5-(Hydroxymethyl)pyridin-2-yl)-4-(7-methyl-1H-indazol-5-yl)butanoyl)piperidin-4-yl)-3,4-dihydroquinazolin-2(1H)-one] |
